The values that follow come from patent publication US5455222A, “1-substituted-5-thiomethylthiocyanato-1H-tetrazoles, compositions containing them and their use as antimicrobial and marine antifouling agents” (The Dow Chemical Company, priority 1994, dated 1995).

Converted amounts (≈) assume the structure as drawn. Some results are limits rather than exact numbers.

One test relates to Proteus vulgaris (Pv). The test can be described thus: Minimum inhibitory concentration (MIC), bacteria in nutrient agar. The format is cell-based, Proteus vulgaris ATCC 881. The settings on record: 48 hours. The protocol:
(§1) The minimum inhibitory concentration (MIC) for the compounds listed in Table I is determined for 9 bacteria, using nutrient agar, and 7 yeast and fungi, using malt yeast agar. A one percent solution of the test compound is prepared in a mixture of acetone and water.
(§2) Nutrient agar is prepared at pH 6.8, representing a neutral medium, and at pH 8.2, representing an alkaline medium. The nutrient agars are prepared by adding 23 g of nutrient agar to one liter of deionized water. In addition, the alkaline medium is prepared by adjusting a 0.04M solution of N-[tris-(hydroxymethyl)methyl]glycine buffered deionized water with concentrated sodium hydroxide to a pH of 8.5.
(§3) The test tubes containing the agar are cooled in a water bath until the temperature of the agar is 48° C. Then, an appropriate amount of the one percent solution of the test compound is added (except in the controls where no compound is added) to the respective test tubes so that the final concentrations are 500, 250, 100, 50, 25, 10, 5, 2.5, 1.0 and zero parts per million of the test compound in the agar, thus having a known concentration of test compound dispersed therein. The contents of the test tubes are then transferred to respective petri plates. After drying for 24 hours, the petri plates containing nutrient agar are inoculated with bacteria and those containing malt yeast agar are inoculated with yeast and fungi.
(§4) The inoculation with bacteria is accomplished by using the following procedure. Twenty-four hour-cultures of each of the bacteria are prepared by incubating the respective bacteria in tubes containing nutrient broth for 24 hours at 30° C. in a shaker. Dilutions of each of the 24 hour-cultures are made so that nine separate suspensions (one for each of the nine test bacteria) are made, each containing 10^8 colony forming units (CFU) per mL of suspension of a particular bacteria. Aliquots of 0.3 mL of each of the bacterial suspensions are used to fill the individual wells of Steer's Replicator. For each microbial suspension, 0.3 mL was used to fill three wells (i.e., three wells of 0.3 mL each) so that for the nine different bacteria, 27 wells are filled. The Steer's Replicator is then used to inoculate both the neutral and alkaline pH nutrient agar petri plates.
(§5) The inoculated petri plates are incubated at 30° C. for 48 hours and then read to determine if the test compound which is incorporated into the agar prevented growth of the respective bacteria.
(§6) Table II lists the bacteria, yeast and fungi used in the MIC test described above along with their respective American Type Culture Collection (ATCC) identification numbers.
(§7) In Tables III and IV, the MIC values of the compounds described in Table I as compared to the MIC of a standard commercial preservative (with 1-(3-chloroallyl)-3,5,7-triaza-1-azoniaadamantane chloride as the active agent and referred to in Tables III and IV as "STANDARD I") are set forth for the bacteria organisms and yeast/fungi organisms which are listed in Table II.

The test system of test [1] is Pseudomonas aeruginosa (Pa). Described as above. Type of test: cell-based, Pseudomonas aeruginosa ATCC 10145. To be noted: 48 hours. The protocol:
as §1, §2, §3, §4, §5, §6, §7

The subject of another test is Aspergillus niger (An). Briefly: Minimum inhibitory concentration (MIC), yeast/fungi in malt yeast agar. The format is cell-based, Aspergillus niger ATCC 16404. The settings on record: 30° C., 72 hours for fungi. The protocol: as §1
(§8) Malt yeast agar is prepared by adding 3 g yeast extract and 45 g malt agar per liter of deionized water. The specific agar is dispensed in 30 mL aliquots into 25×200 mm test tubes, capped and autoclaved for 15 minutes at 115° C.
as §3
(§9) The inoculation with the yeast and fungi is accomplished as follows. Cultures of yeast and fungi are incubated for seven days on malt yeast agar at 30° C. These cultures are used to prepare suspensions by the following procedure. A suspension of each organism is prepared by adding 10 mL of sterile saline and 10 microliters of octylphenoxy polyethoxy ethanol to the agar slant of yeast or fungi. The sterile saline/octylphenoxy polyethoxy ethanol solution is then agitated with a sterile swab to suspend the microorganism grown on the slant. Each resulting suspension is diluted into sterile saline (1 part suspension to 9 parts sterile saline). Aliquots of these dilutions are placed in individual wells of Steer's Replicator and petri plates inoculated as previously described. The petri plates are incubated at 30° C. and read after 48 hours for yeast and 72 hours for fungi.
as §6, §7

The test system of test [2] is Pseudomonas aeruginosa (PRD-10). Briefly: Minimum inhibitory concentration (MIC), bacteria in nutrient agar. The format is cell-based, Pseudomonas aeruginosa ATCC 15442. To be noted: 48 hours. The protocol: as §1, §2, §3, §4, §5, §6, §7
Another test concerns Bacillus subtilis (Bs). The description is as above. The settings on record: 48 hours. The format is cell-based, Bacillus subtilis ATCC 8473. Here is the method: as §1, §2, §3, §4, §5, §6, §7
Test [3] deals with Saccharomyces cerevisiae (Sc). The test can be described thus: Minimum inhibitory concentration (MIC), yeast/fungi in malt yeast agar. The format is cell-based, Saccharomyces cerevisiae ATCC 4105. To be noted: 30° C., 48 hours for yeast. Here is the method:
as §1, §8, §3, §9, §6, §7

For a further test, the system named is Escherichia coli (Ec). Briefly: Minimum inhibitory concentration (MIC), bacteria in nutrient agar. The format is cell-based, Escherichia coli ATCC 11229. The settings on record: 48 hours. The protocol:
as §1, §2, §3, §4, §5, §6, §7

The subject of test [4] is Salmonella choleraesuis (Sc). Described as above. The settings on record: Salmonella enterica, 48 hours. The format is cell-based, Salmonella choleraesuis ATCC 10708. The protocol:
as §1, §2, §3, §4, §5, §6, §7

The term MIC denotes the smallest concentration in the dilution series that meets the test's criterion for growth inhibition. High values mean weaker potency, low ones greater potency. On to `N#CSCSc1nnnn1-c1cccc(Cl)c1` [II, 1-(3-Chlorophenyl)-5-thiomethylthiocyanato-1H-tetrazole], for which the MIC is 100 µg/mL (≈ 352 µM) in the test on Proteus vulgaris (Pv) (nutrient agar pH 6.8, 30° C.); 250 µg/mL (≈ 881 µM) in the test with Proteus vulgaris (Pv) (nutrient agar pH 8.2, 30° C.); 500 µg/mL (≈ 1760 µM) in test [1] (nutrient agar pH 8.2, 30° C.); below 10 µg/mL against Aspergillus niger (An); 500 µg/mL (≈ 1760 µM) in test [2] (nutrient agar pH 6.8, 30° C.); 250 µg/mL (≈ 881 µM) in test [2] (nutrient agar pH 8.2, 30° C.). The MIC against Bacillus subtilis (Bs) (nutrient agar pH 6.8, 30° C.) was 100 µg/mL (≈ 352 µM); in the test on Bacillus subtilis (Bs) (nutrient agar pH 8.2, 30° C.), 250 µg/mL (≈ 881 µM); in test [3], below 10 µg/mL; with Escherichia coli (Ec) (nutrient agar pH 6.8, 30° C.), 500 µg/mL (≈ 1760 µM); in the test on Escherichia coli (Ec) (nutrient agar pH 8.2, 30° C.), 500 µg/mL (≈ 1760 µM); in test [4] (nutrient agar pH 6.8, 30° C.), 500 µg/mL (≈ 1760 µM). Moreover, the MIC in test [4] (nutrient agar pH 8.2, 30° C.) stood at 500 µg/mL (≈ 1760 µM).

As for `N#CSCSc1nnnn1-c1ccc(Cl)cc1` [III, 1-(4-Chlorophenyl)-5-thiomethylthiocyanato-1H-tetrazole], the MIC in the test on Proteus vulgaris (Pv) (nutrient agar pH 6.8, 30° C.) was 25 µg/mL (≈ 88.1 µM); with Proteus vulgaris (Pv) (nutrient agar pH 8.2, 30° C.), 100 µg/mL (≈ 352 µM); in test [1] (nutrient agar pH 8.2, 30° C.) it was 25 µg/mL (≈ 88.1 µM); with Aspergillus niger (An) it was below 1 µg/mL; in test [2] (nutrient agar pH 6.8, 30° C.), 25 µg/mL (≈ 88.1 µM); in test [2] (nutrient agar pH 8.2, 30° C.) it was 50 µg/mL (≈ 176 µM). For the same molecule, the MIC in the test with Bacillus subtilis (Bs) (nutrient agar pH 6.8, 30° C.) was below 10 µg/mL; in the test on Bacillus subtilis (Bs) (nutrient agar pH 8.2, 30° C.), 50 µg/mL (≈ 176 µM); in test [3] it was 2.5 µg/mL (≈ 8.81 µM); with Escherichia coli (Ec) (nutrient agar pH 6.8, 30° C.), 25 µg/mL (≈ 88.1 µM); in the test on Escherichia coli (Ec) (nutrient agar pH 8.2, 30° C.) it was 250 µg/mL (≈ 881 µM); in test [4] (nutrient agar pH 6.8, 30° C.) it was 25 µg/mL (≈ 88.1 µM). Moreover, inhibition of growth in test [4] (nutrient agar pH 8.2, 30° C.) (MIC) required 100 µg/mL (≈ 352 µM).

For the molecule `Cc1cccc(-n2nnnc2SCSC#N)c1` [VI, 1-(3-Methylphenyl)-5-thiomethylthiocyanato-1H-tetrazole], the MIC is 100 µg/mL (≈ 380 µM) against Proteus vulgaris (Pv) (nutrient agar pH 6.8, 30° C.); 100 µg/mL (≈ 380 µM) in the test with Proteus vulgaris (Pv) (nutrient agar pH 8.2, 30° C.); 250 µg/mL (≈ 949 µM) in test [1] (nutrient agar pH 8.2, 30° C.); 5 µg/mL (≈ 19 µM) against Aspergillus niger (An); 500 µg/mL (≈ 1900 µM) in test [2] (nutrient agar pH 6.8, 30° C.); 500 µg/mL (≈ 1900 µM) in test [2] (nutrient agar pH 8.2, 30° C.). Besides, the MIC against Bacillus subtilis (Bs) (nutrient agar pH 6.8, 30° C.) is below 10 µg/mL; in the test with Bacillus subtilis (Bs) (nutrient agar pH 8.2, 30° C.), 25 µg/mL (≈ 94.9 µM); in test [3], below 1 µg/mL; with Escherichia coli (Ec) (nutrient agar pH 6.8, 30° C.), 500 µg/mL (≈ 1900 µM); with Escherichia coli (Ec) (nutrient agar pH 8.2, 30° C.) it was 500 µg/mL (≈ 1900 µM); in test [4] (nutrient agar pH 6.8, 30° C.), 500 µg/mL (≈ 1900 µM). This molecule came in with an MIC in test [4] (nutrient agar pH 8.2, 30° C.) of 500 µg/mL (≈ 1900 µM).

As to `N#CSCSc1nnnn1C1CCCCC1` [X, 1-(Cyclohexyl)-5-thiomethylthiocyanato-1H-tetrazole], the MIC came to 250 µg/mL (≈ 979 µM) in the test with Proteus vulgaris (Pv) (nutrient agar pH 6.8, 30° C.); 250 µg/mL (≈ 979 µM) in the test on Proteus vulgaris (Pv) (nutrient agar pH 8.2, 30° C.); 250 µg/mL (≈ 979 µM) in test [1] (nutrient agar pH 6.8, 30° C.); 250 µg/mL (≈ 979 µM) in test [1] (nutrient agar pH 8.2, 30° C.); 5 µg/mL (≈ 19.6 µM) with Aspergillus niger (An); 500 µg/mL (≈ 1960 µM) in test [2] (nutrient agar pH 6.8, 30° C.). Besides, the minimal inhibitory concentration (MIC) in test [2] (nutrient agar pH 8.2, 30° C.) is 500 µg/mL (≈ 1960 µM); against Bacillus subtilis (Bs) (nutrient agar pH 6.8, 30° C.), below 10 µg/mL; against Bacillus subtilis (Bs) (nutrient agar pH 8.2, 30° C.), 25 µg/mL (≈ 97.9 µM); in test [3], 5 µg/mL (≈ 19.6 µM); against Escherichia coli (Ec) (nutrient agar pH 6.8, 30° C.), 250 µg/mL (≈ 979 µM); in the test on Escherichia coli (Ec) (nutrient agar pH 8.2, 30° C.) it was 500 µg/mL (≈ 1960 µM). Moreover, the minimum inhibitory concentration (MIC) worked out at 250 µg/mL (≈ 979 µM) in test [4] (nutrient agar pH 6.8, 30° C.) and 500 µg/mL (≈ 1960 µM) in test [4] (nutrient agar pH 8.2, 30° C.).
